According to patent publication US11202773B2, “Locally bioavailable drugs” (UNIVERSITY OF HOUSTON SYSTEM, priority 2015, dated 2021):
Read-outs that look alike come from different tables or passages of the source.

How the values were obtained:
mouse COX-2 = molecular target: T1, mouse COX-2 (Mus musculus, UniProt Q05769); assay: COX-2 activity (PGD2/PGE2 production) in LPS-induced Raw264.7 cells; format: cell-based; conditions: 0.1 μg/mL LPS, 14 hours co-incubation
T1 construct: Raw264.7 is a mouse macrophage cell line which expresses a high level of COX-2 protein upon lipopolysaccharide (LPS) induction; endogenous in cells; host or cells: Raw264.7 (LPS-induced)
T1 sequence (Q05769 18-604): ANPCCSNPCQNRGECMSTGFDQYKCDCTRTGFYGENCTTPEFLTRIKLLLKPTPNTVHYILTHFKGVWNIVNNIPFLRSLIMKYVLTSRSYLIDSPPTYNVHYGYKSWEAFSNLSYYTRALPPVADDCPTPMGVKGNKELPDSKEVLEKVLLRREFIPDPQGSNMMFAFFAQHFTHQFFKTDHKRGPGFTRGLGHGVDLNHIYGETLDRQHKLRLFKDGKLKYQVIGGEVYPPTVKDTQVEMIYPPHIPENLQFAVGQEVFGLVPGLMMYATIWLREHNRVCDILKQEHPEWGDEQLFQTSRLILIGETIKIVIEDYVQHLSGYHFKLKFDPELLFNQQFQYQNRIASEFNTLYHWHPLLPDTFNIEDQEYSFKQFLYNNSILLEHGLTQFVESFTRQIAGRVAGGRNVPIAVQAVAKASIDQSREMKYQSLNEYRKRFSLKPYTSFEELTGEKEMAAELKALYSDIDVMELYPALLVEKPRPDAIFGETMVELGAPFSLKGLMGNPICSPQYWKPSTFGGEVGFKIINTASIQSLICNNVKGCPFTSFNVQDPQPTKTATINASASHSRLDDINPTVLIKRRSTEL
Description: (§1) First, the inhibitory effects of the new synthesized compounds on COX-2 were assayed in two cell lines: Raw264.7 cells and HCA-7 cells. Raw264.7 is a mouse macrophage cell line which expresses a high level of COX-2 protein upon lipopolysaccharide (LPS) induction. […] The concentration of prostaglandins (both PGD2 and PGE2) accumulated in the cell culture medium can be employed as an indicator of COX-2 activity. HCA-7 is a human colon cancer cell line in which COX-2 protein is constitutively expressed. Briefly, the cells were pre-incubated with different concentrations of the new compounds for 30 min, and then 10 μM A23187 (a calcium ionophore) was added to release membrane-bound arachidonic acid (the natural substrate of COX-2) to the cytosolic domain. The system was incubated for another 30 minutes and PGE2 concentrations in the culture medium were determined. In both cell lines, higher PGD2/PGE2 concentrations in the media meant more COX-2 activity.

human COX-2 [1] = molecular target: T2, human COX-2 (Homo sapiens, UniProt P35354); assay: COX-2 activity (PGE2 production) in HCA-7 cells after A23187; format: cell-based; set-up: HCA-7 is a human colon cancer cell line in which COX-2 protein is constitutively expressed; endogenous in cells; host or cells: HCA-7; conditions: 30 min pre-incubation, 10 μM A23187, another 30 minutes
T2 sequence (P35354 18-604): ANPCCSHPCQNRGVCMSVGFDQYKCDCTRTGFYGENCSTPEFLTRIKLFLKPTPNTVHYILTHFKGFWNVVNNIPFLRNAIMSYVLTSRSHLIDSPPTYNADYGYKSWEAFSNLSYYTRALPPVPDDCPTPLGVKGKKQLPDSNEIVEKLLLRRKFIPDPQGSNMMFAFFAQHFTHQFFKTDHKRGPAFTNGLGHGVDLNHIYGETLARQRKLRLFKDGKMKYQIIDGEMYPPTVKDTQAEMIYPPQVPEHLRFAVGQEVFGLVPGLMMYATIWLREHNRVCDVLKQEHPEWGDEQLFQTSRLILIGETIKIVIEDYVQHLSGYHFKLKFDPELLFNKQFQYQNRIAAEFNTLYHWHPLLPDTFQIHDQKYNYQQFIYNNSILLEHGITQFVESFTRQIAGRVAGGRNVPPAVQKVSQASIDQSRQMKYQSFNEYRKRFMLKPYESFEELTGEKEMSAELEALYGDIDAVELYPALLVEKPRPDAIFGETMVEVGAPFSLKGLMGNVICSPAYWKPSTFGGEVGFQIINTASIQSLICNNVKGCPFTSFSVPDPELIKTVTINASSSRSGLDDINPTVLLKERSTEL
Description: as §1

human COX-2 [2] = molecular target: T2, human COX-2; assay: In vitro enzyme assay, recombinant human COX-2 (PGE2 production); format: biochemical; conditions: read-out: IC50 against recombinant human COX-2
Excerpt: FIG. 3A is a bar graph illustration of PGE2 production by recombinant human COX-2 enzyme in the presence of the new compounds. Less PGE2 production means inhibition of COX-2 enzyme.
FIG. 3B is a bar graph illustration of PGE2 production by recombinant human COX-2 enzyme in the presence of the metabolites of the new compounds. Less PGE2 production means inhibition of COX-2 enzyme.

recombinant human COX-1 = recombinant human COX-1 (Homo sapiens, UniProt P23219); assay: In vitro enzyme assay, recombinant human COX-1; format: biochemical; conditions: read-out: IC50 against recombinant human COX-1
rat liver microsomes = assay: Glucuronidation by rat liver microsomes; format: in vitro ADME
Description: (§2) FIG. 5A is a bar graph illustrating in vitro metabolism of phenolics via glucuronidation pathway. Glucuronidation rates of all the new locally bioavailable COX-2 inhibitors by rat liver microsomes. Additional metabolic rates of various locally bioavailable COX-2 inhibitors are in Table 3. […]. The incubation systems were: for glucuronidation, 0.88 mM magnesium chloride (MgCl2), 4.4 mM saccharolactone, 0.022 mg/mL alamethicin, 3.5 mM uridine 5′-diphospho-glucuronic acid (UDPGA), 10 μM substrates and different concentrations of microsomes in 50 mM potassium phosphate buffer (pH 7.4); for sulfation, 10 mM dithiothreitol (DTT), 5 mM MgCl2, 100 μM 3′-phosphoadenosine-5′-phosphosulfate (PAPS),10 μM substrate and different concentrations of S9 fractions in 50 mM potassium phosphate buffer (pH 7.4).
(§3) In vitro tools were employed to help predict the in vivo metabolism rates of the COX-2 inhibitors that are phenolics. The microsomes and S9 fractions prepared from colon or liver were used to determine the in vivo glucuronidation and sulfation rates of the phenolic compounds, respectively. By employing microsomes and S9 fractions prepared from both rats and humans, it could be determined if the results obtained in the rat model could be reasonably extrapolated to humans. In these experiments, raloxifene and genistein, two phenolic compounds which undergo extensive first-pass metabolism, were selected as controls.

rat colon microsomes = assay: Glucuronidation by rat colon microsomes; format: in vitro ADME
Description: as §2, with “5B” for “5A”, “glucuronidation” for “metabolism”, “in liver and colon microsomes of rats.” for “via glucuronidation pathway.”, “6a1-6a4” for “all the new locally bioavailable COX-2 inhibitors”, “and colon microsomes were measured.” for “microsomes.”, “(PAPS), 10” for “(PAPS),10”
as §3

human liver microsomes = assay: Glucuronidation by human liver microsomes; format: in vitro ADME
Description: as §2, with “FIG. 5D” for “FIG. 5A”, “of phenolics.” for “of phenolics via glucuronidation pathway.”, “of 6a1-6a4” for “of all the new locally bioavailable COX-2 inhibitors”, “by human” for “by rat”, “liver and intestinal” for “liver”, “Table 4.” for “Table 3.”
as §3

[3] = system: human intestine microsomes; assay: Glucuronidation by human intestine microsomes; format: in vitro ADME
Description: as §2, with “FIG. 5D” for “FIG. 5A”, “of phenolics.” for “of phenolics via glucuronidation pathway.”, “of 6a1-6a4” for “of all the new locally bioavailable COX-2 inhibitors”, “by human” for “by rat”, “liver and intestinal” for “liver”, “Table 4.” for “Table 3.”
as §3

human Colon S9 [4] = assay: Glucuronidation by human colon S9; format: in vitro ADME; conditions: substrate 10 μM
Description: as §2, with “FIG. 5D” for “FIG. 5A”, “of phenolics.” for “of phenolics via glucuronidation pathway.”, “of 6a1-6a4” for “of all the new locally bioavailable COX-2 inhibitors”, “by human” for “by rat”, “liver and intestinal” for “liver”, “Table 4.” for “Table 3.”
as §3, with “The microsomes and S9 fractions prepared from colon or liver were used to determine the in vivo glucuronidation and sulfation rates of the phenolic compounds, respectively.” left out

human Colon S9 [5] = assay: Sulfation by human colon S9; format: in vitro ADME; conditions: substrate 10 μM
Description: as §2, with “FIG. 5D” for “FIG. 5A”, “of phenolics.” for “of phenolics via glucuronidation pathway.”, “of 6a1-6a4” for “of all the new locally bioavailable COX-2 inhibitors”, “by human” for “by rat”, “liver and intestinal” for “liver”, “Table 4.” for “Table 3.”
as §3

rat liver S9 = assay: Sulfation by rat liver S9 fractions; format: in vitro ADME; conditions: substrate 10 μM
Description: as §2, with “FIG. 5C” for “FIG. 5A”, “via sulfonation” for “via glucuronidation”, “pathway. Sulfation” for “pathway. Glucuronidation”, “of 6a1-6a4” for “of all the new locally bioavailable COX-2 inhibitors”, “liver and colon S9 fractions.” for “liver microsomes.”, “μM 3′-phosphoadeno sine-5′-phosphosulfate” for “μM 3′-phosphoadenosine-5′-phosphosulfate”
as §3

rat colon S9 = assay: Sulfation by rat colon S9 fractions; format: in vitro ADME; conditions: substrate 10 μM
Description: as §2, with “FIG. 5C” for “FIG. 5A”, “via sulfonation” for “via glucuronidation”, “pathway. Sulfation” for “pathway. Glucuronidation”, “of 6a1-6a4” for “of all the new locally bioavailable COX-2 inhibitors”, “liver and colon S9 fractions.” for “liver microsomes.”, “μM 3′-phosphoadeno sine-5′-phosphosulfate” for “μM 3′-phosphoadenosine-5′-phosphosulfate”
as §3

human liver S9 = assay: Sulfation by human liver S9; format: in vitro ADME; conditions: substrate 10 μM
Description: as §2, with “FIG. 5D” for “FIG. 5A”, “of phenolics.” for “of phenolics via glucuronidation pathway.”, “of 6a1-6a4” for “of all the new locally bioavailable COX-2 inhibitors”, “by human” for “by rat”, “liver and intestinal” for “liver”, “Table 4.” for “Table 3.”
as §3

human intestine S9 = assay: Sulfation by human intestine S9; format: in vitro ADME; conditions: substrate 10 μM
Description: as §2, with “FIG. 5D” for “FIG. 5A”, “of phenolics.” for “of phenolics via glucuronidation pathway.”, “of 6a1-6a4” for “of all the new locally bioavailable COX-2 inhibitors”, “by human” for “by rat”, “liver and intestinal” for “liver”, “Table 4.” for “Table 3.”
as §3

recombinant human COX-1, sequence (P23219 24-599): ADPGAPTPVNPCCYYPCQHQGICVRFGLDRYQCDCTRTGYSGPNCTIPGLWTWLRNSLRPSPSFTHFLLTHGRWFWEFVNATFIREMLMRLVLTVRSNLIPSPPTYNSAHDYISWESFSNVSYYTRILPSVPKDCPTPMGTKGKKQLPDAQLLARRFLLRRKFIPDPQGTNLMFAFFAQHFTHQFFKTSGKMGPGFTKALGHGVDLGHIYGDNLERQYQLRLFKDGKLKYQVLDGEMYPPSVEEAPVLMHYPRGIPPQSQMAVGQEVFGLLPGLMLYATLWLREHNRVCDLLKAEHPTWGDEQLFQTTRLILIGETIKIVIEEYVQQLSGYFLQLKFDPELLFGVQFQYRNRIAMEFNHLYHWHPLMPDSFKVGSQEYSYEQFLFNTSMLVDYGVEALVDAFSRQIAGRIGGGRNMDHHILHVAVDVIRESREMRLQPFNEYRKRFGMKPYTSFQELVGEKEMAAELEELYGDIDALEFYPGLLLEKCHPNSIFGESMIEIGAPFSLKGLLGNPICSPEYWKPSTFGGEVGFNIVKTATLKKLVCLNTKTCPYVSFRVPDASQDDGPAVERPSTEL

Row | IC50 (mouse COX-2) | IC50 (human COX-2 [2]) | IC50 (recombinant human COX-1) | Glucuronidation rates by liver microsomes (Mean) (rat liver microsomes) | SMILES | further results
1 | 0.071 ± 0.021 µM | – | – | – | CCOC(=O)c1cc(-c2ccc(C)cc2)n(-c2ccc(S(N)(=O)=O)cc2)n1 [Compound 3a] | IC50 (human COX-2 [1]): 0.149 ± 0.026 µM
2 | 0.303 ± 0.055 µM | 2590 nM | 16000 nM | 4763 pmol/mg/min | Cc1ccc(-c2cc(COc3ccc4c(=O)c(O)c(-c5ccccc5)oc4c3)nn2-c2ccc(S(N)(=O)=O)cc2)cc1 [Compound 6a4] | Glucuronidation by rat liver microsomes (FIG. 5A) (rat liver microsomes): rapidly glucuronidated; Glucuronidation rates by colon microsomes (Mean) (rat colon microsomes): 571 pmol/mg/min; Glucuronidation rates by liver microsomes (Mean) (human liver microsomes): 291 pmol/mg/min; Glucuronidation rates by intestine microsomes (Mean) [3]: 2134 pmol/mg/min; IC50 (human COX-2 [1]): 0.162 ± 0.065 µM
3 | – | 54500 nM | 197000 nM | 7453 pmol/mg/min | NS(=O)(=O)c1ccc(-n2nc(COc3ccccc3O)cc2-c2ccccc2)cc1 [Compound 6b1] | –
4 | 4.31 ± 0.629 µM | 207 nM | 145000 nM | 4132 pmol/mg/min | NS(=O)(=O)c1ccc(-n2nc(COc3cccc(O)c3)cc2-c2ccccc2)cc1 [Compound 6b2] | –
5 | 0.033 ± 0.004 µM | 2250 nM | 28 nM | 656 pmol/mg/min | NS(=O)(=O)c1ccc(-n2nc(COc3ccc(O)cc3)cc2-c2ccccc2)cc1 [Compound 6b3] | –
6 | – | 40.3 nM | 19800 nM | 7026 pmol/mg/min | COc1ccc(-c2cc(COc3ccccc3O)nn2-c2ccc(S(N)(=O)=O)cc2)cc1 [Compound 6c1] | –
7 | 2.38 ± 0.502 µM | 353 nM | 1100 nM | 3092 pmol/mg/min | COc1ccc(-c2cc(COc3cccc(O)c3)nn2-c2ccc(S(N)(=O)=O)cc2)cc1 [Compound 6c2] | –
8 | 0.019 ± 0.002 µM | 623 nM | 12600 nM | 934 pmol/mg/min | COc1ccc(-c2cc(COc3ccc(O)cc3)nn2-c2ccc(S(N)(=O)=O)cc2)cc1 [Compound 6c3] | –
9 | – | 1.11 nM | 4900 nM | 1050 pmol/mg/min | Cc1ccc(-c2cc(COCc3ccccc3O)nn2-c2ccc(S(N)(=O)=O)cc2)cc1 [Compound 7a1] | Glucuronidation rates by colon microsomes (Mean) (rat colon microsomes): 160 pmol/mg/min; Glucuronidation rates by liver microsomes (Mean) (human liver microsomes): 2510 pmol/mg/min; Glucuronidation rates by human Colon S9 (Mean) (human Colon S9 [4]): 190 pmol/mg/min; Sulfation rates by human Colon S9 (Mean) (human Colon S9 [5]): 40 pmol/mg/min
10 | – | 40.3 nM | 19800 nM | – | COc1ccccc1COCc1cc(-c2ccc(C)cc2)n(-c2ccc(S(N)(=O)=O)cc2)n1 [Compound 7a3] | –
11 | – | – | – | – | O=c1c(-c2ccc(O)cc2)coc2cc(O)cc(O)c12 [Genistein, reference compound] | Glucuronidation rates by liver microsomes (Mean) (rat liver microsomes; rat, substrate 10 μM): 2199 pmol/mg/min; Sulfation rates by liver S9 (Mean) (rat liver S9): 77 pmol/mg/min; Glucuronidation rates by colon microsomes (Mean) (rat colon microsomes; rat, substrate 10 μM): 142 pmol/mg/min; Sulfation rates by colon S9 (Mean) (rat colon S9): 4 pmol/mg/min; Glucuronidation rates by liver microsomes (Mean) (human liver microsomes; human, substrate 10 μM): 965 pmol/mg/min; Sulfation rates by liver S9 (Mean) (human liver S9): 24 pmol/mg/min; Glucuronidation rates by intestine microsomes (Mean) ([3]; human, substrate 10 μM): 4665 pmol/mg/min; Sulfation rates by human intestine S9 (Mean) (human intestine S9): 46 pmol/mg/min
